Assay: xn = mol fraction of the nth substance listed
Settings: Liquid, Vibrating tube method

COC(=O)OC [dimethyl carbonate] + CCO
mass density [kg/m3]
Settings	100 kPa	5000 kPa	10000 kPa	15000 kPa	20000 kPa	25000 kPa	30000 kPa	35000 kPa	40000 kPa
303.15 K, x1 = 0.0252	–	–	–	–	–	–	–	817.99	821.19
303.15 K, x1 = 0.0506	–	–	–	–	–	–	–	827.65	830.86
303.15 K, x1 = 0.0757	–	–	–	–	–	–	–	836.92	840.19
303.15 K, x1 = 0.1003	–	–	–	–	–	–	–	845.76	849.04
303.15 K, x1 = 0.1508	–	–	–	–	–	–	–	863.66	867.01
303.15 K, x1 = 0.2	–	–	–	–	–	–	–	880.45	883.83
303.15 K, x1 = 0.2547	–	–	–	–	–	–	–	898.44	901.89
303.15 K, x1 = 0.3002	–	–	–	–	–	–	–	912.97	916.44
303.15 K, x1 = 0.3498	–	–	–	–	–	–	–	928.31	931.85
303.15 K, x1 = 0.4	–	–	–	–	–	–	–	943.37	946.93
303.15 K, x1 = 0.449	–	–	–	–	–	–	–	957.5	961.08
303.15 K, x1 = 0.4996	–	–	–	–	–	–	–	971.61	975.21
303.15 K, x1 = 0.5507	–	–	–	–	–	–	–	985.38	989
303.15 K, x1 = 0.6005	–	–	–	–	–	–	–	998.28	1001.97
303.15 K, x1 = 0.6455	–	–	–	–	–	–	–	1009.61	1013.31
303.15 K, x1 = 0.6931	–	–	–	–	–	–	–	1021.1	1024.81
303.15 K, x1 = 0.7502	–	–	–	–	–	–	–	1034.38	1038.11
303.15 K, x1 = 0.8009	–	–	–	–	–	–	–	1045.74	1049.49
303.15 K, x1 = 0.8505	–	–	–	–	–	–	1052.73	1056.47	1060.22
303.15 K, x1 = 0.9008	–	–	–	–	–	–	1063.26	1067	1070.77
303.15 K, x1 = 0.9255	–	–	–	–	–	–	1068.3	1072.05	1075.83
303.15 K, x1 = 0.9477	–	–	–	–	–	–	1072.75	1076.5	1080.28
303.15 K, x1 = 0.9735	–	–	–	–	–	–	1077.83	1081.57	1085.37
303.15 K, x1 = 1	–	–	–	–	–	–	1082.9	1086.6	1090.4
308.15 K, x1 = 0.0252	785.78	790.2	794.7	798.95	803.01	806.85	810.55	814.13	817.65
308.15 K, x1 = 0.0506	795.01	799.48	804.03	808.34	812.45	816.29	820.04	823.67	827.2
308.15 K, x1 = 0.0757	804.1	808.57	813.12	817.43	821.55	825.44	829.2	832.83	836.41
308.15 K, x1 = 0.1003	812.76	817.27	821.84	826.15	830.31	834.21	837.98	841.6	845.19
308.15 K, x1 = 0.1508	830.19	834.75	839.38	843.74	847.91	851.87	855.69	859.36	862.96
308.15 K, x1 = 0.2	846.57	851.18	855.82	860.24	864.46	868.48	872.26	875.98	879.58
308.15 K, x1 = 0.2547	864.3	868.96	873.61	878.08	882.31	886.33	890.22	893.94	897.55
308.15 K, x1 = 0.3002	878.53	883.23	887.94	892.42	896.65	900.73	904.63	908.34	911.96
308.15 K, x1 = 0.3498	893.6	898.3	903.03	907.51	911.79	915.88	919.79	923.55	927.17
308.15 K, x1 = 0.4	908.35	913.1	917.89	922.37	926.66	930.75	934.72	938.43	942.06
308.15 K, x1 = 0.449	922.34	927.13	931.93	936.46	940.76	944.91	948.88	952.59	956.23
308.15 K, x1 = 0.4996	936.23	941.03	945.84	950.37	954.72	958.88	962.91	966.61	970.26
308.15 K, x1 = 0.5507	949.8	954.65	959.47	964	968.36	972.52	976.56	980.26	983.92
308.15 K, x1 = 0.6005	962.5	967.34	972.17	976.76	981.12	985.34	989.34	993.09	996.75
308.15 K, x1 = 0.6455	973.59	978.43	983.27	987.86	992.27	996.5	1000.55	1004.29	1007.96
308.15 K, x1 = 0.6931	984.98	989.86	994.71	999.31	1003.72	1007.95	1012.02	1015.76	1019.43
308.15 K, x1 = 0.7502	998.06	1002.99	1007.85	1012.45	1016.86	1021.1	1025.17	1028.91	1032.59
308.15 K, x1 = 0.8009	1009.32	1014.25	1019.12	1023.72	1028.14	1032.39	1036.46	1040.2	1043.88
308.15 K, x1 = 0.8505	1019.95	1024.88	1029.76	1034.36	1038.78	1043.04	1047.12	1050.86	1054.54
308.15 K, x1 = 0.9008	1030.34	1035.27	1040.16	1044.76	1049.19	1053.46	1057.58	1061.29	1064.96
308.15 K, x1 = 0.9255	1035.32	1040.27	1045.13	1049.75	1054.19	1058.45	1062.57	1066.29	1069.95
308.15 K, x1 = 0.9477	1039.72	1044.68	1049.54	1054.15	1058.61	1062.87	1066.99	1070.7	1074.34
308.15 K, x1 = 0.9735	1044.8	1049.73	1054.59	1059.21	1063.67	1067.93	1072.03	1075.71	1079.36
308.15 K, x1 = 1	1049.91	1054.84	1059.69	1064.3	1068.73	1073	1077.1	1080.78	1084.38

Source: the NIST ThermoML archive (doi:10.1016/j.jct.2019.02.011)
